Data as given in PubChem BioAssay (NCI).
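These data come from cells grown in 96-well plates and exposed to compound for 48 hours at five concentrations. At the GI50, growth is halved. Definition used: TGI = concentration required for complete inhibition of growth.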

Key:
Test in all cases: DTP human tumour cell line panel, 48 h
[1] = system: 786-0 renal
[2] = system: A498 renal
[3] = system: A549 NSCLC
[4] = system: ACHN renal
[5] = system: BT-549 breast
[6] = system: CAKI-1 renal
[7] = system: CCRF-CEM leukemia
[8] = system: COLO 205 colon
[9] = system: DU-145 prostate
[10] = system: EKVX NSCLC
[11] = system: HCC-2998 colon
[12] = system: HCT-116 colon
[13] = system: HCT-15 colon
[14] = system: HL-60(TB) leukemia
[15] = system: HOP-62 NSCLC
[16] = system: HOP-92 NSCLC
[17] = system: HS 578T breast
[18] = system: HT29 colon
[19] = system: IGROV1 ovarian
[20] = system: K-562 leukemia
[21] = system: KM12 colon
[22] = system: LOX IMVI melanoma
[23] = system: M14 melanoma
[24] = system: MALME-3M melanoma
[25] = system: MCF7 breast
[26] = system: MDA-MB-231 breast
[27] = system: MDA-MB-435
[28] = system: MDA-N
[29] = system: MOLT-4 leukemia
[30] = system: NCI-H226 lung
[31] = system: NCI-H23 lung
[32] = system: NCI-H460 lung
[33] = system: NCI-H522 lung
[34] = system: NCI/ADR-RES ovarian
[35] = system: OVCAR-3 ovarian
[36] = system: OVCAR-5 ovarian
[37] = system: OVCAR-8 ovarian
[38] = system: PC-3 prostate
[39] = system: RPMI-8226 leukemia
[40] = system: RXF 393 renal
[41] = system: SF-268 CNS
[42] = system: SF-295 CNS
[43] = system: SF-539 CNS
[44] = system: SK-MEL-28 melanoma
[45] = system: SK-MEL-5 melanoma
[46] = system: SK-OV-3 ovarian
[47] = system: SN12C renal
[48] = system: SNB-19 CNS
[49] = system: SNB-75 CNS
[50] = system: SR leukemia
[51] = system: SW-620 colon
[52] = system: T-47D breast
[53] = system: TK-10 renal
[54] = system: UACC-257 melanoma
[55] = system: UACC-62 melanoma
[56] = system: UO-31 renal
[57] = system: DLD-1 colon
[58] = system: DMS 273 small cell lung
[59] = system: KM20L2 colon
[60] = system: LXFL 529 NSCLC
[61] = system: OVCAR-4 ovarian
[62] = system: SK-MEL-2 melanoma
[63] = system: SNB-78 CNS
[64] = system: U251 CNS

## CCOC(=O)c1nc2ccc(C(F)(F)F)cc2nc1Nc1ccc(OC)c(OC)c1
[1]
  TGI: > 100 µM
[2]
  TGI: > 100 µM
[3]
  TGI: > 100 µM
[4]
  TGI: > 100 µM
[5]
  TGI: > 100 µM
[6]
  TGI: 86.5 µM
[7]
  TGI: > 100 µM
[8]
  TGI: > 100 µM
[9]
  TGI: > 100 µM
[10]
  TGI: > 100 µM
[11]
  TGI: > 100 µM
[12]
  TGI: > 100 µM
[13]
  TGI: > 100 µM
[14]
  TGI: > 100 µM
[15]
  TGI: 29 µM
[16]
  TGI: > 100 µM
[17]
  TGI: > 100 µM
[18]
  TGI: > 100 µM
[19]
  TGI: > 100 µM
[20]
  TGI: > 100 µM
[21]
  TGI: > 100 µM
[22]
  TGI: > 100 µM
[23]
  TGI: > 100 µM
[24]
  TGI: > 100 µM
[25]
  TGI: > 100 µM
[26]
  TGI: > 100 µM
[27]
  TGI: > 100 µM
[28]
  TGI: > 100 µM
[29]
  TGI: > 100 µM
[30]
  TGI: > 100 µM
[31]
  TGI: > 100 µM
[32]
  TGI: > 100 µM
[33]
  TGI: > 100 µM
[34]
  TGI: > 100 µM
[35]
  TGI: > 100 µM
[36]
  TGI: > 100 µM
[37]
  TGI: > 100 µM
[38]
  TGI: > 100 µM
[39]
  TGI: > 100 µM
[40]
  TGI: > 100 µM
[41]
  TGI: > 100 µM
[42]
  TGI: > 100 µM
[43]
  TGI: > 100 µM
[44]
  TGI: > 100 µM
[45]
  TGI: > 100 µM
[46]
  TGI: > 100 µM
[47]
  TGI: > 100 µM
[48]
  TGI: > 100 µM
[49]
  TGI: 67.4 µM
[50]
  TGI: > 100 µM
[51]
  TGI: > 100 µM
[52]
  TGI: > 100 µM
[53]
  TGI: > 100 µM
[54]
  TGI: > 100 µM
[55]
  TGI: > 100 µM
[56]
  TGI: > 100 µM

## N.N.N.N.O=S(=O)([O-])[O-].[Co+3].[OH3+].[OH3+]
[1]
  TGI: > 100 µM
[2]
  TGI: > 100 µM
[3]
  TGI: > 100 µM
[4]
  TGI: > 100 µM
[7]
  TGI: > 100 µM
[8]
  TGI: > 100 µM
[57]
  TGI: > 100 µM
[58]
  TGI: > 100 µM
[10]
  TGI: > 100 µM
[12]
  TGI: > 100 µM
[13]
  TGI: > 100 µM
[14]
  TGI: > 100 µM
[15]
  TGI: > 100 µM
[16]
  TGI: > 100 µM
[18]
  TGI: > 100 µM
[19]
  TGI: > 100 µM
[20]
  TGI: > 100 µM
[21]
  TGI: > 100 µM
[59]
  TGI: > 100 µM
[22]
  TGI: > 100 µM
[60]
  GI50: > 100 µM
  TGI: > 100 µM
[23]
  TGI: > 100 µM
[24]
  TGI: > 100 µM
[29]
  TGI: > 100 µM
[31]
  TGI: > 100 µM
[32]
  TGI: > 100 µM
[33]
  TGI: > 100 µM
[35]
  TGI: > 100 µM
[61]
  TGI: > 100 µM
[36]
  TGI: > 100 µM
[37]
  TGI: > 100 µM
[39]
  TGI: > 100 µM
[41]
  TGI: > 100 µM
[42]
  TGI: > 100 µM
[43]
  TGI: > 100 µM
[62]
  TGI: > 100 µM
[44]
  TGI: > 100 µM
[45]
  TGI: > 100 µM
[46]
  TGI: > 100 µM
[47]
  TGI: > 100 µM
[48]
  TGI: > 100 µM
[49]
  TGI: > 100 µM
[63]
  TGI: > 100 µM
[51]
  TGI: > 100 µM
[53]
  TGI: > 100 µM
[64]
  TGI: > 100 µM
[54]
  TGI: > 100 µM
[55]
  TGI: > 100 µM
[56]
  TGI: > 100 µM
